Consider two molecules from patent publication US20100099698A1, “Compositions for Improving Skin Conditions Comprising Matrine or Its Oxidized Derivatives” (Biospectrum Inc., priority 2007, published 2010).

In data set [1] the test system is collagen (Type 1 collagen) biosynthesis. Description: Collagen synthesis: procollagen type I C-peptide (PICP) EIA in medium of treated fibroblasts. Format: cell-based. The following applies: 24 hr, human fibroblasts. The method, then: (§1) Human fibroblasts (commercially available from pacific) were seeded into a 6-well plate (2×10^5 cells/well) and the well plate was incubated in a 5% CO2 incubator for 24 hr at 37° C. After 24 hr, the medium in each well was removed and samples were treated with various concentrations, followed by incubating again for 24 hr. Following incubation, the cell medium was collected and was used as samples. To measure cytotoxicity of samples to fibroblasts, MIT reagent (1 mg/ml) was added to each well in 1/10 fold volume of the remaining medium, incubated for 3 hr and the medium was eliminated. The medium was dissolved in DMSO and its absorbance at 540 nm was measured.
The extent of collagen synthesis was determined by measuring the amount of procollagen type I C-peptide (PICP) in cell medium using Procollagen Type I C-peptide EIA kit (MK101, Takara, Kyoto, Japan). The method was performed in accordance with manufacturer's protocol.

The subject of a further data set is Human fibroblasts. Description: Cytotoxicity to fibroblasts (MIT reagent, absorbance 540 nm). The following applies: 1 μM, 10 μM and 50 μM; compared to RA (retinoic acid); FIG. 1. Format: cell-based. The protocol: as §1
A further data set relates to B16 mouse melanoma cells. Description: Cytotoxicity at the test concentrations in B16 melanoma cells. Format: cell-based. The note with it: 10 μM, 100 μM and 500 μM.
Another data set relates to Interleukin-2 promoter. Description: Interleukin-2 luciferase reporter activity in PHA-activated Jurkat cells. It counts as cell-based, Human. The following applies: PHA alone = 100. The method, then:
Interleukin-2 promoter was reported to play an important role in the generation of cytokine related to inflammatory. The activity of interleukin-2 luciferase was measured using the following method: […] Following 24 hr, the cell was collected and the luciferase activity was measured using luminometer (Berthold Technologies GmbH&Co.KG, Germany).
(In general: A reporter such as luciferase makes a cellular process visible.)

Take `O=C1CCC[C@@H]2[C@H]3CCCN4CCC[C@@H](CN12)[C@@H]34` [Matrine, matrine]: the “Increasing rate of collagen synthesis (%)” value in data set [1] (1 μM) is recorded as 20%; in data set [1] (10 μM) it was 23%; in data set [1] (50 μM), 40%. Besides, in the data set on Human fibroblasts, the “cytotoxicity against human fibroblasts compared to RA” value is reported as “lower cytotoxicity”. Further, in the data set with B16 mouse melanoma cells, the cytotoxicity entry is given as “did not show cytotoxicity”. The IL-2 luciferase activities amounted to 92 in the data set with Interleukin-2 promoter (10 uM with PHA (100 ng/ml)), 77 in the data set on Interleukin-2 promoter (100 uM with PHA (100 ng/ml)) and 68 in the data set on Interleukin-2 promoter (500 uM with PHA (100 ng/ml)).
As to `O=C1CCC[C@@H]2[C@H]3CCC[N+]4([O-])CCC[C@@H](CN12)[C@@H]34` (some centres unmarked) [Oxymatrine, oxymatrine], the entries for the “Increasing rate of collagen synthesis (%)” value in data set [1] (1 μM), in data set [1] (10 μM) and in data set [1] (50 μM) were 11%, 15% and 22%, respectively. Also, the IL-2 luciferase activities with Interleukin-2 promoter (10 uM with PHA (100 ng/ml)) was 95; in the data set with Interleukin-2 promoter (100 uM with PHA (100 ng/ml)), 78; in the data set with Interleukin-2 promoter (500 uM with PHA (100 ng/ml)), 62.
